{
  "source": "paper PMC10033419",
  "about": "“Blocking NS3–NS4B interaction inhibits dengue virus in non-human primates” (Nature, 2023)",
  "key": {"DENV-2/16681": {"tested_on": "DENV-2/16681", "experiment": "NHP DENV-2 study, plasma viral RNA RT-qPCR", "design": "species or system rhesus macaques (M. mulatta)", "settings": "rhesus monkey, in vivo"}, "THP-1/DC-SIGN cells": {"tested_on": "THP-1/DC-SIGN cells", "experiment": "ATPLite cell viability assay", "assay_type": "cell-based, human", "protocol": "(§1) In parallel, the toxicity was measured using an ATPLite cell viability luminescence assay (PerkinElmer). The assays were performed in three different cell types (Vero, Huh-7 and THP-1/DC-SIGN) as described in ref. [3] to exclude cell-specific activity of the compound."}, "[1]": {"experiment": "ATPLite cell viability assay", "assay_type": "cell-based, human", "settings": "human, THP-1/DC-SIGN cells", "protocol": "as §1"}, "HBV replicon": {"tested_on": "HBV replicon", "experiment": "microbe, parasite or virus in culture", "assay_type": "cell-based", "settings": "Hepatitis B virus"}, "INF-A PR8/1934": {"tested_on": "INF-A PR8/1934", "experiment": "microbe, parasite or virus in culture", "assay_type": "cell-based", "settings": "Influenza A virus, PR8, MDCK"}, "in vivo": {"experiment": "in vivo", "design": "species or system rhesus macaques", "settings": "both sexes, Indian-strain, rhesus monkey, po, 6 mg/kg", "excerpt": "WRAIR is fully accredited by AAALAC International."}, "[2]": {"settings": "both, Indian-origin, rhesus monkey, in vivo, po"}, "RSV rgRSV224": {"tested_on": "RSV rgRSV224", "experiment": "microbe, parasite or virus in culture", "assay_type": "cell-based", "settings": "human respiratory syncytial virus, HeLa"}, "DENV-2/16681/eGFP": {"tested_on": "DENV-2/16681/eGFP", "experiment": "microbe, parasite or virus in culture", "assay_type": "cell-based", "settings": "Dengue virus"}, "Plasma protein binding": {"experiment": "Plasma protein binding", "assay_type": "in vitro ADME", "settings": "rhesus monkey, rhesus macaques"}, "panel of 20 DENV strains": {"tested_on": "panel of 20 DENV strains", "experiment": "DENV genotype panel (20 strains) RT-qPCR, Vero E6", "assay_type": "cell-based, DENV-1–4", "settings": "Dengue virus, DENV4 / genotype 3, Vero C1008, read-out: mean EC50, range", "protocol": "A total of 20 DENV strains, representing the available genotypes within the four DENV serotypes, were used in the in vitro genotype panel, from which 19 viruses were described previously in ref. [3] and one additional virus, DENV-1/45AZ5 (ref. [54]), was added.\nA potential toxic effect on host cells was tested in parallel, while omitting virus infection, using the MTS/PMS method (Promega) for Vero cells, or by high-content imaging for C6/36 cells, as described previously. […] RT–qPCR data were analysed using the QuantStudio 12K Flex software (v.1.2.3) or SDS v.1.2 Applied Biosystems software. Inhibition values for antiviral molecules were plotted using KaleidaGraph plotting software (v.4.03, Synergy Software)."}, "NS3–NS4B interaction": {"tested_on": "NS3–NS4B interaction", "assay_type": "cell-based", "settings": "for EC50: single replicates, read-out: EC50 (NS3/4B interaction), IP"}, "DENV-2 RL strain": {"tested_on": "DENV-2 RL strain", "experiment": "Delayed-treatment study (therapeutic setting)", "assay_type": "in vivo, AG129 mice", "settings": "30 mg/kg/day, individual mice"}, "[3]": {"settings": "start treatment day 0 p.i., blood sampling day 3 p.i."}, "[4]": {"settings": "start treatment day 0 p.i., blood sampling day 4 p.i."}, "[5]": {"settings": "start treatment day 0 p.i., blood sampling day 5 p.i."}, "[6]": {"settings": "start treatment day 0 p.i., blood sampling day 6 p.i."}, "[7]": {"settings": "start treatment day 0 p.i., blood sampling day 7 p.i."}, "[8]": {"settings": "start treatment day 0 p.i., blood sampling day 8 p.i."}, "[9]": {"settings": "start treatment day 0 p.i., blood sampling day 9 p.i."}, "[10]": {"settings": "start treatment day 4 p.i., blood sampling day 3 p.i."}, "[11]": {"settings": "start treatment day 4 p.i., blood sampling day 4 p.i."}},
  "note": "Several values for one entry are separate records, joined by “and”; a condition that tells them apart may be missing. Equal entries are not always repeated. Where two headings read alike, the source gives them in different places.",
  "data": [
    {"smiles": "COc1cc(N[C@H](C(=O)c2c[nH]c3ccc(OC(F)(F)F)cc23)c2ccc(Cl)cc2OC)cc(S(C)(=O)=O)c1", "note": "[JNJ-1802]", "values": [
      {"measurement": "DENV RNA in plasma", "setting": "DENV-2/16681", "result": "undetectable DENV RNA levels throughout the study period"},
      {"measurement": "Viral load Assay 1 FLAG", "setting": "DENV-2/16681", "result": "BLOQ (key: BLOQ = Below limit of detection)"},
      {"measurement": "Viral load Assay 2 FLAG", "setting": "DENV-2/16681", "result": "BLOQ (key: BLOQ = Below limit of detection)"},
      {"measurement": "Viral load Assay 2 FLAG (2nd column)", "setting": "DENV-2/16681", "result": "BLOQ (key: BLOQ = Below limit of detection)"},
      {"measurement": "day first DENV-RNA positive (≥LLOQ)", "setting": "DENV-2/16681", "result": 5},
      {"measurement": "day first DENV-RNA positive (≥LLOQ), per animal", "setting": "DENV-2/16681", "result": "21 and 6 and 10"},
      {"measurement": "peak viraemia", "setting": "DENV-2/16681", "result": "comparable to the vehicle controls"},
      {"measurement": "CC50", "setting": "THP-1/DC-SIGN cells; individual data, read-out: CC50, individual data", "result": "> 500", "unit": "nM"},
      {"measurement": "CC50", "setting": "THP-1/DC-SIGN cells; mean, read-out: CC50 Mean", "result": "> 500", "unit": "nM"},
      {"measurement": "CC50", "setting": "[1]", "result": "> 500", "unit": "nM"},
      {"measurement": "EC50", "setting": "HBV replicon; HepG2.117", "result": 10000, "unit": "nM"},
      {"measurement": "EC50", "setting": "HBV replicon; HepG2.117, read-out: EC50, Mean", "result": 9960, "unit": "nM"},
      {"measurement": "EC90", "setting": "HBV replicon; HepG2.117, read-out: EC90, Mean", "result": 12500, "unit": "nM"},
      {"measurement": "EC50", "setting": "INF-A PR8/1934", "result": "> 2600", "unit": "nM"},
      {"measurement": "EC50", "setting": "INF-A PR8/1934; read-out: EC50, Mean", "result": "> 25000", "unit": "nM"},
      {"measurement": "EC90", "setting": "INF-A PR8/1934; read-out: EC90, Mean", "result": "> 25000", "unit": "nM"},
      {"measurement": "Tmax", "setting": "in vivo", "result": 8, "unit": "h"},
      {"measurement": "Tmax", "setting": "[2]; 0.01 mg/kg", "result": 24, "unit": "h"},
      {"measurement": "Cmax", "setting": "[2]; 0.18 mg/kg", "result": "25.3 ± 6.7", "unit": "ng/mL"},
      {"measurement": "Tmax", "setting": "[2]; 3 mg/kg", "result": "up to 24 h"},
      {"measurement": "EC50", "setting": "RSV rgRSV224; read-out: EC50, Mean", "result": 3180, "unit": "nM"},
      {"measurement": "EC90", "setting": "RSV rgRSV224; read-out: EC90, Mean", "result": 5460, "unit": "nM"},
      {"measurement": "EC50", "setting": "DENV-2/16681/eGFP; DENV2, THP-1, THP-1/DC-SIGN, read-out: EC50", "result": "0.173 ± 0.043", "unit": "nM"},
      {"measurement": "EC90", "setting": "DENV-2/16681/eGFP; DENV2, THP-1, THP-1/DC-SIGN, read-out: EC90", "result": "0.283 ± 0.056", "unit": "nM"},
      {"measurement": "EC50", "setting": "DENV-2/16681/eGFP; DENV2, THP-1, read-out: EC50, individual data", "result": 0.2, "unit": "nM"},
      {"measurement": "EC90", "setting": "DENV-2/16681/eGFP; DENV2, THP-1, read-out: EC90, individual data", "result": 0.25, "unit": "nM"},
      {"measurement": "fraction unbound", "setting": "Plasma protein binding", "result": "< 0.001"},
      {"measurement": "EC50", "setting": "panel of 20 DENV strains", "result": "0.04 to 1.8", "unit": "nM"},
      {"measurement": "EC50", "setting": "NS3–NS4B interaction; L94F", "result": "[…]"},
      {"measurement": "EC50", "setting": "NS3–NS4B interaction; T108I", "result": "[…]"},
      {"measurement": "EC50", "setting": "NS3–NS4B interaction; V91A", "result": "[…]"},
      {"measurement": "EC50", "setting": "NS3–NS4B interaction; WT", "result": "[…]"},
      {"measurement": "effect on NS3–NS4B complexes", "setting": "NS3–NS4B interaction; time of addition", "result": "[…]"},
      {"measurement": "Viral Load Copies/ml", "setting": "DENV-2 RL strain; [3]", "result": "1.31E+03 Copies/ml and 3.02E+03 Copies/ml"},
      {"measurement": "Viral Load Log10", "setting": "DENV-2 RL strain; [3]", "result": "3.1316 Log10 and 3.1169 Log10 and 3.4801 Log10"},
      {"measurement": "Viral Load Copies/ml", "setting": "DENV-2 RL strain; [4]", "result": "1.31E+04 Copies/ml and 1.96E+04 Copies/ml and 3.27E+03 Copies/ml and 2.07E+03 Copies/ml"},
      {"measurement": "Viral Load Log10", "setting": "DENV-2 RL strain; [4]", "result": "4.1169 Log10 and 4.2930 Log10 and 3.5148 Log10 and 3.3153 Log10"},
      {"measurement": "Viral Load Copies/ml", "setting": "DENV-2 RL strain; [5]", "result": "4.36E+03 Copies/ml and 3.27E+03 Copies/ml and 3.93E+03 Copies/ml"},
      {"measurement": "Viral Load Log10", "setting": "DENV-2 RL strain; [5]", "result": "3.6398 Log10 and 3.5148 Log10 and 3.5940 Log10"},
      {"measurement": "Viral Load Copies/ml", "setting": "DENV-2 RL strain; [6]", "result": "1.31E+03 Copies/ml and 2.07E+03 Copies/ml and 5.61E+03 Copies/ml"},
      {"measurement": "Viral Load Log10", "setting": "DENV-2 RL strain; [6]", "result": "3.1169 Log10 and 3.3153 Log10 and 3.7489 Log10"},
      {"measurement": "Viral Load Copies/ml", "setting": "DENV-2 RL strain; [7]", "result": "1.57E+03 Copies/ml and 1.64E+03 Copies/ml and 6.54E+03 Copies/ml and 9.82E+03 Copies/ml"},
      {"measurement": "Viral Load Log10", "setting": "DENV-2 RL strain; [7]", "result": "3.8159 Log10 and 3.9919 Log10"},
      {"measurement": "Viral Load Copies/ml", "setting": "DENV-2 RL strain; [8]", "result": "6.54E+03 Copies/ml and 1.96E+04 Copies/ml and 3.27E+03 Copies/ml"},
      {"measurement": "Viral Load Log10", "setting": "DENV-2 RL strain; [8]", "result": "3.8159 Log10 and 4.2930 Log10 and 3.5148 Log10"},
      {"measurement": "Viral Load Copies/ml", "setting": "DENV-2 RL strain; [9]", "result": "1.31E+03 Copies/ml and 1.64E+03 Copies/ml"},
      {"measurement": "Viral Load Log10", "setting": "DENV-2 RL strain; [9]", "result": 3.1169, "unit": "Log10"},
      {"measurement": "Viral Load Copies/ml", "setting": "DENV-2 RL strain; [10]", "result": "1.96E+04 Copies/ml and 8.52E+04 Copies/ml and 2.38E+05 Copies/ml and 1.40E+06 Copies/ml"},
      {"measurement": "Viral Load Log10", "setting": "DENV-2 RL strain; [10]", "result": "4.2930 Log10 and 4.9304 Log10 and 5.3771 Log10 and 6.1456 Log10"},
      {"measurement": "Viral Load Copies/ml", "setting": "DENV-2 RL strain; [11]", "result": "5.13E+06 Copies/ml and 8.56E+06 Copies/ml and 1.09E+07 Copies/ml and 3.84E+06 Copies/ml"},
      {"measurement": "Viral Load Log10", "setting": "DENV-2 RL strain; [11]", "result": "[…]"}
    ]}
  ]
}
